Assay results reported in patent publication US9212361B2, “Methods and pharmaceutical compositions for the treatment of hypertension” (INSERM, priority 2013, dated 2015).

Key:
MR [1] = target: T1, MR (Rattus norvegicus, UniProt P22199); assay: NGAL expression in dendritic cells incubated with aldo +/- spironolactone; format: cell-based; conditions: 24 hr
T1 construct: endogenous in cells; host or cells: dendritic cells differentiated with GM-CSF from bone marrow stem cells of male SD rats
T1 sequence (P22199 1-981): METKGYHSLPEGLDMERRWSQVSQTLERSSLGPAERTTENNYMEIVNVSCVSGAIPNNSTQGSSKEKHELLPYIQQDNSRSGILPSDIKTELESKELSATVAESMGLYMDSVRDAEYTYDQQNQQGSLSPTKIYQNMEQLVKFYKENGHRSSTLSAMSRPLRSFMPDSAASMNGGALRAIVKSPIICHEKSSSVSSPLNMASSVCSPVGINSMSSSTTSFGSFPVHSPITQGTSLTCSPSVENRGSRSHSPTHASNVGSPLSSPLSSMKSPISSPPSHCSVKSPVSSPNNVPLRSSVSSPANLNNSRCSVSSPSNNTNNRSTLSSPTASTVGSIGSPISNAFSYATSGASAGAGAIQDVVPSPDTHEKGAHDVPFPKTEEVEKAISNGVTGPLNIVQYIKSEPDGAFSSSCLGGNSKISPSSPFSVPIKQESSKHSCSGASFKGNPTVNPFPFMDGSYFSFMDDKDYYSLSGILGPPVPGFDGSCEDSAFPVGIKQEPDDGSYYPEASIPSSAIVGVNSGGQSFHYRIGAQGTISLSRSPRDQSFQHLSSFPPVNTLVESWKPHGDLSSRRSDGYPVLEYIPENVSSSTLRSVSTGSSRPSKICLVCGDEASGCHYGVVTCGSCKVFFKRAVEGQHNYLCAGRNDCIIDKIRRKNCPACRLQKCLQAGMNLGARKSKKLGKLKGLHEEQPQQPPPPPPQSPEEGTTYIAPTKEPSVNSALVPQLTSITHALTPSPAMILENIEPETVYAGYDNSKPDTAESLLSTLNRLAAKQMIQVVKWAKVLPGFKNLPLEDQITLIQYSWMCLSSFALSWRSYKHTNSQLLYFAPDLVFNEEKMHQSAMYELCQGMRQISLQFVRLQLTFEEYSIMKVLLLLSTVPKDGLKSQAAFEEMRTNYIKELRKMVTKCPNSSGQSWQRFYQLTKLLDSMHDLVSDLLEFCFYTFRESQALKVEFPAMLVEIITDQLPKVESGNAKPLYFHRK
Description: (§1) FIG. 3. NGAL is an aldo/MR target in DCs (A) and macrophages (B). A:DCs were obtained from male SD rat bone marrow stem cells and differentiated during 6 days with GM-CSF. DCs were incubated with aldo (10 nM), spironolactone (5 μM), aldo plus spironolactone, or vehicle for 24 hr. *p<0.05 by ANOVA analysis (n=4); B: peritoneal macrophages from WT mice were stimulated or not with aldo (10 nM+/−RU28318 (MR antagonist). NGAL behaves similarly as MCP1 (monocy chemoattractant protein).
(§2) Macrophages are purified from abdominal cavity from mice, after 4 days of inflammation induced by thioglycollate injection. Dendritic cells are obtained after 7 days of incubation of bone marrow precursors cells (from mice bone marrow) with GM-CSF (granulocyte macrophage colony-stimulating factor).

MR [2] = target: T2, MR (Mus musculus, UniProt Q8VII8); assay: NGAL expression in peritoneal macrophages stimulated with aldo; format: cell-based; conditions: aldo 10 nM; peritoneal macrophages from WT mice
T2 construct: Macrophages are purified from abdominal cavity from mice; endogenous in cells; host or cells: thioglycollate-elicited peritoneal macrophages from WT mice
T2 sequence (Q8VII8 1-978): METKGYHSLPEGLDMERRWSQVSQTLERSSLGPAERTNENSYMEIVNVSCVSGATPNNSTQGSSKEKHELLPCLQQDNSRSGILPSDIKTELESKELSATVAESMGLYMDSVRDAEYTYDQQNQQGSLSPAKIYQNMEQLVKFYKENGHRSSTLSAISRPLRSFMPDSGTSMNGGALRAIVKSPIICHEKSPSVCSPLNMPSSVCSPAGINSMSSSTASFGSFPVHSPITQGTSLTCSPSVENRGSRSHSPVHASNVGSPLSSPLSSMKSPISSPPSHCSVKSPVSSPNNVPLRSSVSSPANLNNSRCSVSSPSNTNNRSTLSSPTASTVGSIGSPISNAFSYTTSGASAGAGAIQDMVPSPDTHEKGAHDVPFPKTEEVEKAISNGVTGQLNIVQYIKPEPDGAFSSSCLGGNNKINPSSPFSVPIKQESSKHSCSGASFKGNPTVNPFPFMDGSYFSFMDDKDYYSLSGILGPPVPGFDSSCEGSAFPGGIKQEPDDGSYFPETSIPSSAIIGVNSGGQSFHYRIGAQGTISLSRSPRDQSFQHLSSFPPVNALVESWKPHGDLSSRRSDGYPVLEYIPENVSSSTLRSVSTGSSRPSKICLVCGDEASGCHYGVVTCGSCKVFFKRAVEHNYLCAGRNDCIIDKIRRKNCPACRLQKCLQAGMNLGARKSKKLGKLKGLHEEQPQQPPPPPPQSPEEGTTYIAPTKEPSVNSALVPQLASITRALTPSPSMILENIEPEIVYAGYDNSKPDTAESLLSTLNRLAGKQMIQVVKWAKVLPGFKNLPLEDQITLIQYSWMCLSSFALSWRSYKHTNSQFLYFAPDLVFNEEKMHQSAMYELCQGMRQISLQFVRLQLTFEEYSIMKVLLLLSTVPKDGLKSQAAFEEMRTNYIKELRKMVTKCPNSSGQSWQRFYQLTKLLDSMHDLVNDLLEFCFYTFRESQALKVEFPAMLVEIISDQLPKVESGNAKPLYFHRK
Description: as §1, §2

NGAL expression in dendritic cells (MR [1]; aldo 10 nM)	NGAL expression in macrophages (MR [2])	aldo-induced NGAL upregulation in dendritic cells (MR [1]; spironolactone 5 μM plus aldo 10 nM)	SMILES
upregulated	aldo/MR target gene in the macrophages	–	C[C@]12CCC(=O)C=C1CC[C@@H]1[C@@H]2[C@@H](O)C[C@]2(C=O)[C@@H](C(=O)CO)CC[C@@H]12 [aldo, Aldosterone]
–	–	blocked	CC(=O)S[C@@H]1CC2=CC(=O)CC[C@]2(C)[C@H]2CC[C@@]3(C)[C@@H](CC[C@@]34CCC(=O)O4)[C@H]12 [spironolactone]
